From patent US10154989B2, “Methods of managing graft versus host disease (GvHD) using indole carboxyaldehydes or derivatives thereof” (Emory University, priority 2015, dated 2018)
Entries after “also recorded” stand apart in the source; their conditions may differ.

Tests used:
Assay type in all cases: in vivo
[1] = test system: GvHD in B10.BR mice administered TCDBM+T cells; assay: GvHD model: 11Gy TBI B10.BR mice given TCDBM plus 3×10^6 allo-MHC mismatched C57Bl/6 T cells
Procedure: B6,B10.BR allo MHC mismatched transplants, administering 3×10^6 MHC mismatched donor T cells following myeloablative irradiation with 11Gy that injures gut epithelia. […] ICA (150 mg/kg/d) p.o. QD.
The gut microbiota contribute to GvHD, yet some Lactobacillus species, which produce ICA and related molecules, mitigate GvHD. Thus, depending on the composition of the microbiota, molecules derived from it might protect from GvHD or exacerbate it. ICA might limit GvHD, by regulating barrier integrity. A myeloablative dose of total body irradiation (TBI) (11Gy) was administered to B10.BR mice, an established murine model of GvHD, in which followed by transplantation of T cell depleted bone marrow (TCDBM) plus/or minus 3×10^6 allo-MHC mismatched T cells all from donor C57Bl/6 mice. Mice administered TCDBM+T cells consistently developed GvHD, increased apoptosis and crypt hyperplasia in the colon (e.g. FIG. 4C), bacterial dissemination to mesenteric lymph nodes (FIG. 4B), increased Th17 responses, and 90% lethality by 30 days (FIG. 4A). […] Thus, ICA protects against GvHD.

C. rodentium = assay: Infectious colitis: ICA given to mice infected with C. rodentium
Procedure: Indoles were assessed in models of epithelial barrier integrity and immune regulation in mammals. Pathogenic E. coli (EPEC and EHEC) and the related mouse pathogen C. rodentium encode virulence factors and a Type III secretion system through the LEE pathogenicity island, and cause diarrhea and colitis. In vivo, C. rodentium causes infectious colitis, characterized by neutrophil and T cell infiltration into the lamina propria, transient increases in IL-22, epithelial barrier breakdown, crypt hyperplasia (an indicator of repair), and dissemination of bacteria throughout the body. […] Thus, indole derivatives, produced via commensal E. coli TnaA, mitigate pathogen infection. ICA was administered to mice that were infected with C. rodentium.

[2] = test system: radiation-induced enteritis in mice; assay: Radiation enteritis: 12Gy TBI without BM transplant
From the text: Mice were subjected to 12Gy TBI without BM transplant, a lethal model in which most animals succumb to radiation-induced enteritis by about 7 days post-irradiation (p.i.), as opposed to hematopoietic failure at about 14 days p.i. […] (FIG. 5C). Thus, ICA reduced the death rate of both colonic and hematopoietic stem cells. […] While reduced intestinal damage and improved repair likely accounts at least in part for initial improvement in GvHD animals, additional effects on immune tolerance were also evident, but only over very long periods of administration (>3 months).

[3] = test system: GvHD in B10.BR (H2k) mice transplanted with TCD-BM+T cells; assay: GvHD model: lethally irradiated B10.BR mice given TCD-BM plus 2×10^6 B6 T cells, daily ICA gavage
Procedure: Lethally irradiated B10.BR (H2k) mice were transplanted with 3×10^6 T cell depleted bone marrow cells (TCD-BM) alone or the combination of TCD-BM plus 2×10^6 purified T cells from B6 (H2b) donor mice. Mice received daily gavage with 100 mg/kg or 150 mg/kg ICA or vehicle through day 38 post-transplant. Survival and clinical manifestations of GvHD were monitored through day 62. Histopathology of the gut, cytokines in serum and colon homogenates, intracellular cytokine staining of donor T-cells and bacterial counts in mesenteric lymph nodes (using blood agar plates) were measured in a separate cohort of experimental mice euthanized on day 20. Additionally, a secondary transplant was conducted to test the allo-proliferative capacity (in vivo CFSE dilution assay) and GvHD activity of T-cells from spleens of mice in the TCD-BM+T cells+150 mg/kg ICA group that survived to day 62, compared to B6 T cells, in combination with fresh B6 TCD-BM, in B10.BR recipients.
They were fed vehicle, 100 mg/kg/day of ICA, or 150 mg/kg/day of ICA by oral gavage. Only 7% of the recipients of TCD-BM+T cells treated with vehicle only survived to day 46.

[4] = mice infected with C. rodentium
[5] = ICA-treated recipients of TCD-BM+T cells

With `O=Cc1c[nH]c2ccccc12` [ICA, indole-3-carboxaldehyde] the “bacterial dissemination to mesenteric lymph nodes” value ([1]; ICA p.o. 150 mg/kg QD) was “abrogated”, the colon damage ([1]; ICA p.o. 150 mg/kg QD) was “abrogated” and the “effect on liver GvHD” value ([1]; ICA p.o. 150 mg/kg QD) was “without effect”. For the same compound, the “animals in which weight loss and death were prevented” value ([1]; ICA p.o. 150 mg/kg QD, animals receiving TCDBM+T cells) was 90%, the “tolerance of donor C57Bl/6 T cells to B10.BR antigens” value ([1]; after long-term treatment (50 days)) was “irreversibly and permanently tolerant” and the “response of donor T cells to allo-antigens other than B10.BR or C57Bl/6” value ([1]; after long-term treatment (50 days), upon secondary transplantation) was “remain responsive”. The “survival of mice with transplanted allogeneic T cells” value ([1]; untreated animals all succumbed to GvHD) was 90%, the survival (C. rodentium; ICA 150 mg/kg/d p.o., C. rodentium infected MyD88−/− mice, compared to vehicle) was “enhances survival” and the barrier integrity (C. rodentium; [4]) was “maintained barrier integrity”. For the same compound, the survival (C. rodentium; [4]) was “prolonged survival”, the mean survival time ([2]; 12Gy TBI without BM transplant, extended from 7 days) was 12 days p.i and the “apoptotic cells in the colon” value ([2]; at 6 hr p.i.) was “fewer apoptotic cells; also recorded: decrease”. For the same compound, the “hematopoietic cells in the marrow” value ([2]; at 4 days p.i.) was “increased numbers; also recorded: enhances survival of hematopoietic progenitors”, the “survival from radiation, in words” value ([2]; no BM transplant) was “promotes survival” and the “survival of recipients of TCD-BM+T cells” value ([3]; 100 mg/kg/day ICA oral gavage, at day 52, p=0.009) was 20%. For the same compound, the “survival of recipients of TCD-BM+T cells” value ([3]; 150 mg/kg/day ICA oral gavage, p<0.001) was 83%, the “levels of inflammatory cytokines” value [3, 5] was “decreased levels of inflammatory cytokines” and the thymopoiesis [3, 5] was “improved thymopoiesis”. For the same compound, the “GvHD activity of recovered T cells in secondary B10.BR recipients” value ([3]; T cells recovered at day 62 from ICA-treated recipients) was “lack of GvHD activity”, the “proliferation of CFSE-stained T cells in secondary transplant” value ([3]; T cells recovered at day 62 from ICA-treated recipients, secondary B10.BR recipients) was “reduced proliferation” and the “GvHD mortality / survival, in words” value ([3]; daily doses of ICA, 100 or 150 mg/kg/day) was “improved survival in a dose-dependent manner; also recorded: reduces GvHD mortality in a dose-dependent manner”. The “engraftment by allogeneic donor bone marrow” value ([3]; fed to transplant recipients for the first few weeks after transplant) was “allows normal engraftment”, the tolerability / toxicity ([3]; recipients of BM grafts without GvHD-causing T-cells) was “well tolerated without serious toxicity” and the “GvHD pathology, histological analysis of colonic tissue” value ([3]; vs vehicle-treated control animals) was “marked reduction of GvHD pathology”. For the same compound, the “bacterial colonization of mesenteric lymph nodes (MLN)” value ([3]; vs vehicle-treated control animals, p<0.01) was “decreased bacterial colonization; also recorded: reduce bacterial colonization”.
